Measured values: patent publication US11345666B2, “Phenyl and pyridinyl substituted imidazoles as modulators of RORγT” (Janssen Pharmaceutica NV, priority 2018, dated 2022)
Marks after values point to notes of the source that are not given here.

Columns and labels:
[1] = molecular target: full-length human RORγt (Homo sapiens (Human), UniProt P51449); assay: RORγt (full-length human) reporter assay, conditions A or B; type: cell-based; conditions: for IC50: HEK293T cells, read-out: RORγt (FL) Reporter Assay A or B, IC50; for inhibition at 6 µM: read-out: RORγt (FL) Reporter Assay A or B, % inhibition @ 6 μM, 6 μM compound concentration; for inhibition at 3 µM / RORγt (FL) Reporter Assay A or B, % inhibition: 3 μM compound concentration (*)
Method in brief: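 HEK293T cells transiently co-transfected (PEI) with GAL4-DBD–RORγt, GAL4-firefly luciferase and CMV-Renilla reporters; condition A 35,000 cells/well, 170.5 ng DNA/well; condition B 8750 cells/well, 42.6 ng DNA/well.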

[2] = molecular target: human RORγt ligand binding domain (RORγt LBD) (Homo sapiens (Human), UniProt P51449); assay: RORγt ThermoFluor assay
Method in brief: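 Thermal shift of His-tagged human RORγt LBD (0.065 mg/mL) with 60 μM 1,8-ANS in 100 mM Hepes pH 7.0, 10 mM NaCl, 2.5 mM GSH, 0.002% Tween-20, heated at 1° C./min. Compounds in 1:2 series from a 10 mM DMSO stock; KD estimated from ΔTm using protein unfolding thermodynamics.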

[3] = read-out: RORγt (FL) Reporter Assay A or B, % inhibition

Chain of human RORγt ligand binding domain (RORγt LBD) (P51449 other isoform, or with tags, fused parts or gaps): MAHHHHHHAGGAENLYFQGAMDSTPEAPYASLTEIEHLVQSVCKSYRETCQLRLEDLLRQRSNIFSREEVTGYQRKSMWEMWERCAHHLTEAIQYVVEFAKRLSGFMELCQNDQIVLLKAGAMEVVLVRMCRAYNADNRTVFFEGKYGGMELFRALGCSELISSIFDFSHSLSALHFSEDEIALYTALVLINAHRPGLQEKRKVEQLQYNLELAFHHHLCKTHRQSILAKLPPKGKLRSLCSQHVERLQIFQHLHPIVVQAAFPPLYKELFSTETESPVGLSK
Chain of full-length human RORγt (P51449 other isoform, or with tags, fused parts or gaps): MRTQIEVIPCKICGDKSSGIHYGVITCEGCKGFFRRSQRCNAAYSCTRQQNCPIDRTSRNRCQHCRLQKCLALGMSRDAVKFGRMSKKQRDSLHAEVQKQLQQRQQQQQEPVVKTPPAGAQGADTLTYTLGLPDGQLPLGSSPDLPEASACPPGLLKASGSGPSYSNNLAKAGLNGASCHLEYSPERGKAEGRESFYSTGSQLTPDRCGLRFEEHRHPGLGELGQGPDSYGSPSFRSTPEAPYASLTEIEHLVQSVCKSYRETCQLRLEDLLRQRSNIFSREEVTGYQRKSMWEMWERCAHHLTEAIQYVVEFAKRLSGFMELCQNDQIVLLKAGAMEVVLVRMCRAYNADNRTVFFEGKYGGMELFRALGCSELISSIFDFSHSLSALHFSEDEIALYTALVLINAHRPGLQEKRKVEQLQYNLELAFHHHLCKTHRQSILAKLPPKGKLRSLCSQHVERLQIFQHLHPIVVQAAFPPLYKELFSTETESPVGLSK

Compound	IC50 [1]	Kd [2]	inhibition at 3 µM [1, 3]	other results
CCc1nc(C(=O)NC[C@]2(O)CC[C@@H](S(C)(=O)=O)CC2)c(Cl)n1-c1ncc(CC(C)(C)C(F)(F)F)cc1OC(F)F [Example 46, 5-Chloro-1-(3-(difluoromethoxy)-5-(3,3,3-trifluoro-2,2-dimethylpropyl)pyridin-2-yl)-2-ethyl-N-(((1s,4s)-1-hydroxy-4-(methylsulfonyl)cyclohexyl)methyl)-1H-imidazole-4-carboxamide]	28 nM	3.1 nM	–	inhibition at 6 µM [1]: 97%
CCc1nc(C(=O)NC[C@H]2CC[C@H](S(C)(=O)=O)CC2)c(C)n1-c1ncc(CC(C)(C)C(F)(F)F)cc1OC(F)F [Example 49, 1-(3-(Difluoromethoxy)-5-(3,3,3-trifluoro-2,2-dimethylpropyl)pyridin-2-yl)-2-ethyl-5-methyl-N-(((1r,4r)-4-(methylsulfonyl)cyclohexyl)methyl)-1H-imidazole-4-carboxamide]	14 nM	5.8 nM	–	inhibition at 6 µM [1]: 94%
CCc1nc(C(=O)NC[C@H]2CC[C@H](S(C)(=O)=O)CC2)c(C)n1-c1ncc(CCCC(F)(F)F)cc1OC(F)F [Example 51, 1-(3-(Difluoromethoxy)-5-(4,4,4-trifluorobutyl)pyridin-2-yl)-2-ethyl-5-methyl-N-(((1r,4r)-4-(methylsulfonyl)cyclohexyl)methyl)-1H-imidazole-4-carboxamide]	140 nM	120 nM	–	inhibition at 6 µM [1]: 84%
Cc1nc(C(=O)NC[C@H]2CC[C@H](S(C)(=O)=O)CC2)c(C#N)n1-c1ccc(CC(C)(C)C(F)(F)F)cc1OC(F)F [Example 53, 5-Cyano-1-(2-(difluoromethoxy)-4-(3,3,3-trifluoro-2,2-dimethylpropyl)phenyl)-2-methyl-N-(((1r,4r)-4-(methylsulfonyl)cyclohexyl)methyl)-1H-imidazole-4-carboxamide]	11 nM	2.5 nM	84%	–
Cc1nc(C(=O)NC[C@]2(O)CC[C@@H](S(C)(=O)=O)CC2)c(C#N)n1-c1ccc(CC(C)(C)C(F)(F)F)cc1OC(F)F [Example 54, 5-Cyano-1-(2-(difluoromethoxy)-4-(3,3,3-trifluoro-2,2-dimethylpropyl)phenyl)-N-(((1s,4s)-1-hydroxy-4-(methylsulfonyl)cyclohexyl)methyl)-2-methyl-1H-imidazole-4-carboxamide]	35 nM	11 nM	–	inhibition at 1 µM ([1]; 1 μM compound concentration (***), read-out: RORγt (FL) Reporter Assay A or B, % inhibition): 83%
CCc1nc(C(=O)NC[C@]2(O)CC[C@@H](S(C)(=O)=O)CC2)c(Cl)n1-c1ncc(CC(C(F)(F)F)C(F)(F)F)cc1OC(F)F [Example 62, 5-Chloro-1-(3-(difluoromethoxy)-5-(3,3,3-trifluoro-2-(trifluoromethyl)propyl)pyridin-2-yl)-2-ethyl-N-(((1s,4s)-1-hydroxy-4-(methylsulfonyl)cyclohexyl)methyl)-1H-imidazole-4-carboxamide]	89 nM	19 nM	100%	–
CCc1nc(C(=O)NC[C@H]2CC[C@H](S(C)(=O)=O)CC2)c(Cl)n1-c1ncc(CC(C(F)(F)F)C(F)(F)F)cc1OC(F)F [Example 63, 5-Chloro-1-(3-(difluoromethoxy)-5-(3,3,3-trifluoro-2-(trifluoromethyl)propyl)pyridin-2-yl)-2-ethyl-N-(((1r,4r)-4-(methylsulfonyl)cyclohexyl)methyl)-1H-imidazole-4-carboxamide]	47 nM	7.3 nM	95%	–
CCc1nc(C(=O)NC[C@H]2CC[C@H](S(=O)(=O)NC)CC2)c(Cl)n1-c1ncc(CC(C)(C)C(F)(F)F)cc1OC(F)F [Example 68, 5-Chloro-1-(3-(difluoromethoxy)-5-(3,3,3-trifluoro-2,2-dimethylpropyl)pyridin-2-yl)-2-ethyl-N-(((1r,4r)-4-(N-methylsulfamoyl)cyclohexyl)methyl)-1H-imidazole-4-carboxamide]	50 nM	3.7 nM	–	RORγt (FL) Reporter Assay A or B, % inhibition [1]: 103* %
CCc1nc(C(=O)NC[C@H]2CC[C@H](S(N)(=O)=O)CC2)c(Cl)n1-c1ncc(CC(C)(C)C(F)(F)F)cc1OC(F)F [Example 69, 5-Chloro-1-(3-(difluoromethoxy)-5-(3,3,3-trifluoro-2,2-dimethylpropyl)pyridin-2-yl)-2-ethyl-N-(((1r,4r)-4-sulfamoylcyclohexyl)methyl)-1H-imidazole-4-carboxamide]	39 nM	7.2 nM	102%	–
CCc1nc(C(=O)NC[C@H]2CC[C@H](S(=O)(=O)N(C)C)CC2)c(Cl)n1-c1ncc(CC(C)(C)C(F)(F)F)cc1OC(F)F [Example 70, 5-Chloro-1-(3-(difluoromethoxy)-5-(3,3,3-trifluoro-2,2-dimethylpropyl)pyridin-2-yl)-N-(((1r,4r)-4-(N,N-dimethylsulfamoyl)cyclohexyl)methyl)-2-ethyl-1H-imidazole-4-carboxamide]	350 nM	320 nM	–	RORγt (FL) Reporter Assay A or B, % inhibition [1]: 88* %
CCc1nc(C(=O)NC[C@H]2CC[C@H](S(C)(=O)=O)CC2)c(Cl)n1-c1ncc(CC(C)(C)C(F)(F)F)cc1C [Example 74, 5-Chloro-2-ethyl-1-(3-methyl-5-(3,3,3-trifluoro-2,2-dimethylpropyl)pyridin-2-yl)-N-(((1r,4r)-4-(methylsulfonyl)cyclohexyl)methyl)-1H-imidazole-4-carboxamide]	92 nM	34 nM	116%	–
CCc1cc(CC(C)(C)C(F)(F)F)cnc1-n1c(CC)nc(C(=O)NC[C@H]2CC[C@H](S(C)(=O)=O)CC2)c1Cl [Example 75, 5-Chloro-2-ethyl-1-(3-ethyl-5-(3,3,3-trifluoro-2,2-dimethylpropyl)pyridin-2-yl)-N-(((1r,4r)-4-(methylsulfonyl)cyclohexyl)methyl)-1H-imidazole-4-carboxamide]	59 nM	8.3 nM	110%	–
CCc1nc(C(=O)NC[C@]2(O)CC[C@@H](S(C)(=O)=O)CC2)c(C)n1-c1ncc(CC(C(F)(F)F)C(F)(F)F)cc1OC(F)F [Example 76, 1-(3-(Difluoromethoxy)-5-(3,3,3-trifluoro-2-(trifluoromethyl)propyl)pyridin-2-yl)-2-ethyl-N-(((1s,4s)-1-hydroxy-4-(methylsulfonyl)cyclohexyl)methyl)-5-methyl-1H-imidazole-4-carboxamide]	440 nM	110 nM	76%	–
CCc1nc(C(=O)NC[C@H]2CC[C@H](S(C)(=O)=O)CC2)c(C)n1-c1ncc(CC(C(F)(F)F)C(F)(F)F)cc1OC(F)F [Example 77, 1-(3-(Difluoromethoxy)-5-(3,3,3-trifluoro-2-(trifluoromethyl)propyl)pyridin-2-yl)-2-ethyl-5-methyl-N-(((1r,4r)-4-(methylsulfonyl)cyclohexyl)methyl)-1H-imidazole-4-carboxamide]	77 nM	20 nM	101%	–
CCc1nc(C(=O)NC[C@]2(O)CC[C@@H](S(C)(=O)=O)CC2)cn1-c1c(F)cc(CC(C)C)cc1F [Example 81, 1-(2,6-Difluoro-4-isobutylphenyl)-2-ethyl-N-(((1s,4s)-1-hydroxy-4-(methylsulfonyl)cyclohexyl)methyl)-1H-imidazole-4-carboxamide]	1200 nM	260 nM	–	inhibition at 6 µM [1]: 27%
CCc1nc(C(=O)NC[C@H]2CC[C@H](S(C)(=O)=O)CC2)cn1-c1c(F)cc(CC(C)C)cc1F [Example 82, 1-(2,6-Difluoro-4-isobutylphenyl)-2-ethyl-N-(((1r,4r)-4-(methylsulfonyl)cyclohexyl)methyl)-1H-imidazole-4-carboxamide]	370 nM	150 nM	–	inhibition at 2 µM ([1]; 2 μM compound concentration (**), read-out: RORγt (FL) Reporter Assay A or B, % inhibition): 44%
CCc1nc(C(=O)NC[C@]2(O)CC[C@@H](S(C)(=O)=O)CC2)cn1-c1c(F)cc(CC(C)C(F)(F)F)cc1F (stereo partly drawn) [Example 84, 1-(2,6-Difluoro-4-(3,3,3-trifluoro-2-methylpropyl)phenyl)-2-ethyl-N-(((1s,4s)-1-hydroxy-4-(methylsulfonyl)cyclohexyl)methyl)-1H-imidazole-4-carboxamide]	2000 nM	2200 nM	–	inhibition at 6 µM [1]: 35%
CCc1nc(C(=O)NC[C@H]2CC[C@H](S(C)(=O)=O)CC2)c(Cl)n1-c1c(F)cc(CC(C)C(F)(F)F)cc1F (stereo partly drawn) [Example 85, 5-Chloro-1-(2,6-difluoro-4-(3,3,3-trifluoro-2-methylpropyl)phenyl)-2-ethyl-N-(((1r,4r)-4-(methylsulfonyl)cyclohexyl)methyl)-1H-imidazole-4-carboxamide]	23 nM	8.2 nM	–	inhibition at 0.22 µM ([1]; 0.22 μM compound concentration (******), read-out: RORγt (FL) Reporter Assay A or B, % inhibition): 63%
CCc1nc(C(=O)NC[C@]2(O)CC[C@@H](S(C)(=O)=O)CC2)c(Cl)n1-c1c(F)cc(CC(C)C(F)(F)F)cc1F (stereo partly drawn) [Example 88, 5-Chloro-1-(2,6-difluoro-4-(3,3,3-trifluoro-2-methylpropyl)phenyl)-2-ethyl-N-(((1s,4s)-1-hydroxy-4-(methylsulfonyl)cyclohexyl)methyl)-1H-imidazole-4-carboxamide]	46 nM	17 nM	–	inhibition at 0.67 µM ([1]; 0.67 μM compound concentration (****), read-out: RORγt (FL) Reporter Assay A or B, % inhibition): 67%
